Test results from patent US10577428B2, “Anti-factor XI monoclonal antibodies and methods of use thereof” (Oregon Health & Science University, priority 2007, dated 2020).

Tests used:
baboons [1] = assay: Effect of locally infused PPACK during local sampling; type: in vivo, baboon; settings: PPACK 0.5 mg/ml infused locally at 20 μl/min
Procedure: A novel local sampling method was used to assess the local production of thrombogenic mediators by sampling blood that superfused propagating experimental thrombi. […] All blood samples were collected into 1/10th volume 3.8% citrate anticoagulant. Systemic samples (1 ml each) were collected before initiation of thrombosis as well as 30 and 60 min into each study. A total of 6 local blood samples were drawn from the peripheral blood IBL at a rate of 100 μl/min over 10 min intervals out of a 0.64 mm port which was located 10 mm distal to the growing thrombus (FIG. 1A). […] Infusion and sampling were regulated by syringe pumps (Harvard Apparatus). Local sampling was performed only with the 4 mm i.d. devices in this study.

baboons [2] = assay: Standard template skin bleeding time test (Surgicutt); type: in vivo, baboon
Procedure: The effects of FXI inhibition and aspirin on primary hemostasis in baboons were assessed using the standard template skin bleeding time test (Surgicutt®, International Technidyne Corp). […] All bleeding time measurements were performed by the same expert technician. For indirect assessment of hemostasis, aPTT and PT measurements were also performed.

baboons [3] = assay: Observation for adverse reactions and bleeding events; type: in vivo, baboon; settings: one week follow-up periods of observation
baboons (Papio anubis) = assay: Vascular graft occlusion studies, collagen coated 2 mm i.d. grafts, high arterial shear; type: in vivo, baboon (Papio anubis)
Procedure: Thrombus formation was initiated within the baboon AV shunt by interposing a thrombogenic segment of prosthetic vascular graft (ePTFE, WL Gore & Co., Flagstaff, Ariz.), as previously described (Hanson et al. (1993) J. Clin. Invest. 92:2003-2012). To consistently trigger platelet-dependent thrombus formation, the clinical graft segments were coated with immobilized collagen. Twenty mm long grafts having internal diameters (i.d.) of either 2 or 4 mm were filled with equine type I collagen (1 mg/ml; Nycomed Arzenmittel, Munich, Germany) for 15 min, and then dried overnight under sterile airflow. This method produced a uniform collagen coating within the graft lumen as determined by scanning electron microscopy (FIGS. 1B and 1C). The thrombogenic collagen-coated grafts were then incorporated between segments of silicon rubber tubing, and deployed into the AV shunts (FIG. 1A). The grafts were exposed to blood for up to 60 min. During each experiment, the blood flow rate through the graft was restricted to 100 ml/min by clamping the proximal silicone rubber shunt segment, thereby producing a mean wall shear rate (MWSR) in the 4 mm grafts of 265 s^−1, while in the 2 mm grafts the initial MWSR was 2120 s^−1. Flow rates were continuously monitored using an ultrasonic flow meter (Transonics Systems, Ithaca, N.Y.). […] Baseline blood flow was restored through the permanent shunt after each experiment. In the 2 mm diameter grafts blood flow rates progressively declined due to thrombus formation. The grafts were removed from the AV shunts when the flow rate fell from 100 ml/min to below 20 ml/min, signaling imminent occlusion. The time from initiation of blood flow to graft removal (<20 ml/min blood flow) was taken as the occlusion time.
Occlusion studies were performed using 10 mm long 2 mm i.d. collagen coated devices which produced high arterial shear rates (2120 s^−1 at 100 ml/min clamped blood flow). Accumulation of labeled platelets onto 2 mm thrombogenic grafts were measured in 3-min intervals using a gamma scintillation camera. Flow was maintained at 100 ml/min by proximal clamping for as long as possible, and then allowed to decrease as the propagating thrombus began to occlude the device. A final blood flow rate of 20 ml/min was used as a cutoff for occlusion, since a fully occlusive thrombi and lack of blood flow through the device could lead to occlusion of the shunt and a significant loss of blood for the animals.
Since aspirin is a less antihemostatic agent than heparin, and it is often included in the standard treatment of arterial-type platelet-dependent thrombosis, ASA was used in the current studies with the occlusion-prone 2 mm i.d. grafts as a long-acting positive control. ASA (32 mg/kg) was administered orally 2-4 h before each thrombosis experiment, as described previously (Hanson et al. (1985) J. Clin. Invest. 75:1591-1599). Four weeks were allowed for washout of each aXIMab and ASA before performing new experiments in the same animal.

NC(N)=NCCC[C@H](NC(=O)[C@@H]1CCCN1C(=O)[C@H](N)Cc1ccccc1)C(=O)CCl [PPACK, Phe-Pro-Arg-chloromethylketone]
systemic prothrombin times (PT) or activated partial thromboplastin times (aPTT) (baboons [1]): did not affect

CC(=O)Oc1ccccc1C(=O)O [ASA, acetylsalicylic acid, reference compound]
effect on bleeding time / hemostasis (baboons [2]; FIG. 6, compared with no treatment controls): prolonged the bleeding time | standard template bleeding time (baboons [2]; vehicle-treated controls 3.4±0.2 min): 6.4 ± 0.7 min | adverse bleeding events (baboons [3]): No re-bleeding phenomena, petechiae, hematomas or other adverse bleeding events | platelet deposition (baboons (Papio anubis); 2 mm i.d. grafts): reduced platelet deposition | Number occluded (baboons (Papio anubis); 2 mm i.d. grafts, 60 min): 4/6 | Embolic events per experiment (baboons (Papio anubis); 2 mm i.d. grafts, mean ± SEM): 1.5 ± 0.6 | Fibrin deposition (baboons (Papio anubis); 2 mm i.d. grafts, mean ± SEM, control 0.30 ± 0.04): 0.23 ± 0.04 mg | grafts remained patent (baboons (Papio anubis); 2 mm i.d. grafts, over 60 min): 2 | time to graft occlusion prolonged by (average) (baboons (Papio anubis); in 4 grafts, ASA 32 mg/kg orally): 18 min
